The structures appear in SMILES notation.

The subject of one experiment is MCF7 cells. Description: Caspase 3 activation apoptosis assay in MCF7 cells. Type of experiment: cell-based, human. The note with it: co-treatment with Camptothecin, FIG. 3. Here is the method:
(§1) The herein disclosed inhibitors were evaluated as to the ability to increase cell death. Inhibitors of Akt and inhibitors of Akt and a protein kinase were assessed alone and in combination to determine the effect on caspase 3 activation.
(§2) Apoptosis Assay: Caspase 3 Activation
(§3) Cells were seeded in 96 well plates at concentrations ranging from 2×10^3 to 1×10^4 cells per well in their respective growth media. For anchorage independent assays (spheroids) cells were plated in 96 well plates that had been coated with poly-heme(poly 2-hydroxyethylmethacrylate [Sigma] 10 mg/ml in 95% ethanol). 72 hours later caspase 3 assays were set up as follows:
(§4) a. For standard combination assays, compounds were added at respective concentrations indicated and plates incubated at 37° C. in a CO2 incubator for 18 hours. For standard combination assays utilizing treatment with camptothecin, compounds and camptothecin were added at the same time at the respective concentrations indicated.
(§5) b. For combinations involving addition of the death receptor ligand TRAIL/Apo2L (Research Diagnostics) compounds were added for 1.5 hours prior to addition of TRAIL and plates incubated an additional 3 to 4 hours post TRAIL addition. In the case of the time course, plates were incubated for 2, 3, 4, 5, 6 and 7 hrs with Trail ligand before ending the assay. […]

The subject of a further experiment is LnCaP cells. In words: Caspase 3 activation apoptosis assay in LnCaP cells. Format: cell-based, human. Here is the method: as §1, §2, §3, §4, §5
The next experiment relates to Akt1, Akt2 and Akt3. Description: Akt kinase assays (HTRF, GSK-derived biotinylated peptide substrate). As to conditions: as characterised in the figure legends. Format: biochemical, human. The protocol: Activated AKT isoforms and pleckstrin homology domain deletion constructs were assayed utilizing a GSK-derived biotinylated peptide substrate. The extent of peptide phosphorylation was determined by Homogeneous Time Resolved Fluorescence (HTRF) using a lanthamide chelate (Lance)-coupled monoclonal antibody specific for the phosphopeptide in combination with a streptavidin-linked allophycocyanin (SA-APC) fluorophore which will bind to the biotin moiety on the peptide. When the Lance and APC are in proximity (i.e. bound to the same phosphopeptide molecule), a non-radiative energy transfer takes place from the Lance to the APC, followed by emission of light from APC at 665 nm.
The reaction is assembled by adding 16 TL of the ATP/MgCl2 working solution to the appropriate wells of a 96-well microtiter plate. Inhibitor or vehicle (1.0 Tl) is added followed by 10 Tl of peptide working solution. The reaction is started by adding 13 Tl of the enzyme working solution and mixing. The reaction is allowed to proceed for 50 min and then stopped by the addition of 60 Tl HTRF quench buffer. The stopped reactions were incubated at room temperature for at least 30 min and then read on the Discovery instrument.

In another experiment the test system is LnCaP/Akt3 cell line. In words: Caspase 3 activation apoptosis assay in LnCaP/Akt3 cells. Format: cell-based, human. The note with it: FIG. 4 (b). Here is the method: as §1, §2, §3, §4, §5
The next experiment relates to MDA-MB468 cells. In words: Caspase 3 activation apoptosis assay in MDA-MB468 cells. The note with it: FIG. 6 (a). Type of experiment: cell-based, human. The protocol: as §1, §2, §3, §4, §5

For `NC(=O)c1[nH]c2ccc(Br)cc2c1S(=O)(=O)N1CCOCC1` [Compound A], in the experiment on MCF7 cells, the “fold increase in Caspase 3 activation over Camptothecin alone” value amounted to 8.7 fold. The “fold increase in Caspase 3 activation over Trail alone” value in the experiment with LnCaP cells (+ TRAIL ligand, FIG. 1) is listed as 1.2 fold.
On to `O=c1[nH]c2ccccc2n1C1CCN(Cc2ccc(-c3nc4cc5nc[nH]c5cc4nc3-c3ccccc3)cc2)CC1` [Compound 12-5, 1-{1-[4-(7-Phenyl-1H-imidazo[4,5-g]quinoxalin-6-yl)benzyl]piperidin-4-yl}-1,3-dihydro-2H-benzimidazol-2-one], for which the “fold increase in Caspase 3 activation over Camptothecin alone” value in the experiment with MCF7 cells is reported as 5.8 fold. The Akt isoform selectivity entry in the experiment with Akt1, Akt2 and Akt3 is “selective Akt1 and Akt2 inhibitor”.
In the case of `CN(C)CC(C)(C)CNc1nn2c(-c3ccccc3)nnc2cc1C1CCC1` [Compound 1, N′-(7-Cyclobutyl-3-phenyl-[1,2,4]triazolo[4,3-b]pyridazin-6-yl)-2,2,N,N-tetramethyl-propane-1,3-diamine], the “Caspase 3 activity in the presence of Trail” value in the experiment with LnCaP/Akt3 cell line, with MDA-MB468 cells and with LnCaP cells (FIG. 4 (a)) was “increase in Caspase 3 activity” in each case. Also, the Akt isoform selectivity entry with Akt1, Akt2 and Akt3 is given as “selective Akt1 inhibitor”.

Values taken from patent US20040102360A1, “Combination therapy” (priority 2002, published 2004).
